Results on 17 molecules are retold here after publication PMC10242237 (Scientific Reports, 2023).

A word on the inhibition: it is the percentage by which the read-out fell short of the control. One may read the melting point as the temperature of the solid-liquid transition. As a reminder, the IC50 is the concentration at which inhibition is half-maximal. The term CC50 denotes the concentration that lowers cell viability or growth by half. Low values mean greater toxicity to the cells, high ones lower toxicity to the cells. By EC50 is commonly meant the concentration that produces a half-maximal response.

The target of one series is SARS-CoV-2 PL^pro (Severe acute respiratory syndrome coronavirus 2, UniProt P0DTD1). The series is described as follows: biochemical. Particulars: for inhibition [%] SARS-CoV-2 PLpro: [E] = 100 nM, [I] = 1 µM, [S] = 10 µM; for inhibition at 1 µM: 0.5 h, read-out: inhibition [%] SARS-CoV-2 PLpro.
The target of a further series is SARS-CoV-2 M^pro (Severe acute respiratory syndrome coronavirus 2, UniProt P0DTD1). As to the kind of experiment: biochemical. The conditions noted are these: for inhibition at 0.1 µM: read-out: inhibition [%] SARS-CoV-2 Mpro, [I] = 100 nM; for inhibition at 1 µM: read-out: inhibition [%] SARS-CoV-2 Mpro, [I] = 1 µM.
Series [1] has as its target SARS-CoV-2 nsp14 N7-MTase (Severe acute respiratory syndrome coronavirus 2, UniProt P0DTD1). The series is described as follows: Py-FLINT fluorescence assay of nsp14 N7-MTase. The series is classed as biochemical. Particulars: for SARS-CoV-2 nsp14 Hill coefficient p: four-parameter dose-response fit, variable Hill slope.
Description: To determine their IC50 values, we used the previously described fluorescence assay Py-FLINT[42],[67]. To this end, the Py-FLINT probe (1 μM) was incubated with SAM cosubstrate (20 μM), nsp14 enzyme (40 nM), and half-log inhibitor dilutions in 50 mM Tris–HCl pH 7.5 buffer at 30 °C. The reaction progress was monitored in 96-well cells by registering the fluorescence intensity signal with a 1-min time interval. Using the initial reaction course, the values of initial rates V were calculated. To calculate IC50 values from the obtained dependences of initial rates versus inhibitor concentration, we fitted a four-parameter dose–response equation, assuming a variable Hill slope p (Table 3, Fig. S2).
The Py-FLINT probe (1 μM) was incubated with SAM cosubstrate (20 μM), nsp14 (40 nM), and an inhibitor (half-log dilutions logCinh < − 2.5; 2 >). […] Initial rates V were calculated by fitting a linear curve to the first 10 points (10 min). To the obtained dependences V(Cinh) the following four-parameter dose–response equation was fitted:1 V/V0=A1+A2-A1/1+Cinh/IC50^p, where A1 and A2 are the bottom and top asymptotes, respectively; Cinh the inhibitor concentration; p is the Hill coefficient, and V/V0 is the ratio of the initial reaction rate with the inhibitor to that without the inhibitor. For curve fitting and IC50 calculations we used GraphPad Prism software.
A further series concerns Vero E6 cells. The series is described as follows: Cytotoxicity assay (XTT) in Vero E6 cells. It counts as cell-based. Particulars: Vero E6 cells, three days, XTT. How it is done: Cytotoxicity was evaluated by incubating two-fold serial dilutions of each compound with Vero E6 cells.
Background: Formazan colour is commonly taken as a measure of viable cells.

The subject of series [2] is SARS-CoV-2. The series is described as follows: Cytopathic effect (CPE)-based anti-SARS-CoV-2 assay in Vero E6 cells. Particulars: read-out: EC50 CPE, three days, XTT. On the technique in general: Protection from cytopathic effect is a common read-out in antiviral testing.
For series [3], the system named is SARS-CoV-2. The series is described as follows: RNA reduction-based anti-SARS-CoV-2 assay (RT-qPCR) in Vero E6 cells. Particulars: read-out: EC50 RNA, two days, RT-qPCR of medium.

Consider `Cc1ccccc1-n1[se]c2ccccc2c1=O` [Compound 4], for which the “inhibition [%] SARS-CoV-2 PLpro” value against SARS-CoV-2 PL^pro was determined as 55.8 ± 5.2%. Also, on SARS-CoV-2 M^pro, the inhibition at 0.1 µM came out at 63.4 ± 2.7%.
Consider `O=c1c2ccccc2[se]n1-c1ccc(F)cc1F` [Compound 14], for which, at SARS-CoV-2 PL^pro, the “inhibition [%] SARS-CoV-2 PLpro” value is reported as 58.1 ± 3.9%. Moreover, on SARS-CoV-2 M^pro, the inhibition at 0.1 µM came out at 64.8%.
As to `Cc1cc(-n2[se]c3ccccc3c2=O)ccc1Cl` [Compound 22], the inhibition at 1 µM at SARS-CoV-2 PL^pro was 43.1 ± 2.1%. For the same molecule, the inhibition at 0.1 µM on SARS-CoV-2 M^pro is 72.2 ± 0.8%.
The corresponding values for `O=c1c2ccccc2[se]n1-c1ccccc1F` [Compound 1] are 54.6 ± 2% and 72.3 ± 2.3%.
The corresponding values for `COc1cccc(-n2[se]c3ccccc3c2=O)c1` [Compound 8] are 52.6 ± 1.4% and 59.9 ± 4.8%.
As for `O=c1c2ccccc2[se]n1-c1ncccc1O` [Compound 7, 2-(3-hydroxypyridin-2-yl)-1,2-benzisoselenazol-3(2H)-one], the melting point is 228 to 229 °C (dec.). Also, on SARS-CoV-2 PL^pro, the inhibition at 1 µM came to 84.4 ± 2.1%. The inhibition at 0.1 µM on SARS-CoV-2 M^pro was determined as 55.9 ± 4.1%. Further, in series [1], the “SARS-CoV-2 nsp14 Hill coefficient p” value is recorded as 4.08 ± 1.33.
In the case of `CC(=O)Nc1ccc(-n2[se]c3ccccc3c2=O)cc1` [Compound 13], at SARS-CoV-2 PL^pro, the inhibition at 1 µM was 57.3 ± 1.8%. In addition, on SARS-CoV-2 M^pro, the inhibition at 0.1 µM was determined as 62 ± 1%.
With `Cc1c(Cl)cccc1-n1[se]c2ccccc2c1=O` [Compound 21], the melting point was 282 to 283 °C. Besides, the inhibition at 1 µM at SARS-CoV-2 PL^pro is 58.3 ± 2.4%. Also, the inhibition at 0.1 µM on SARS-CoV-2 M^pro is 70.6 ± 1.4%.
With `O=C(Nc1cccc(F)c1)c1ccccc1[Se][Se]c1ccccc1C(=O)Nc1cccc(F)c1` [Compound 27, bis[2-(3-fluorophenylcarbamoyl)]phenyl diselenide], the “inhibition [%] SARS-CoV-2 PLpro” value against SARS-CoV-2 PL^pro stood at 90.1 ± 5.4%. In addition, at SARS-CoV-2 M^pro, the inhibition at 0.1 µM turned out to be 44 ± 4.1%. Also, at SARS-CoV-2 M^pro, the inhibition at 1 µM came out at 100%. The molecule also returned an IC50 in series [1] of 180 ± 40 nM. In addition, the CC50 with Vero E6 cells was greater than 50000 nM. Further, the results for the EC50 in the series on SARS-CoV-2 [2] and with SARS-CoV-2 [3] were 700 ± 130 nM and 1500 ± 150 nM, respectively.
In the case of `O=c1c2ccccc2[se]n1-c1ccccc1Br` [Compound 3], the inhibition at 1 µM at SARS-CoV-2 PL^pro was determined as 59.2 ± 4.5%. Also, on SARS-CoV-2 M^pro, the inhibition at 0.1 µM was found to be 73.3 ± 4.5%. In addition, in series [1], the “SARS-CoV-2 nsp14 Hill coefficient p” value was 3.12 ± 0.47.
For `Cc1ccc(Cl)c(-n2[se]c3ccccc3c2=O)c1` [Compound 19], the “inhibition [%] SARS-CoV-2 PLpro” value at SARS-CoV-2 PL^pro is given as 57.6 ± 3.0%. For the same molecule, at SARS-CoV-2 M^pro, the inhibition at 0.1 µM turned out to be 61.8 ± 0.5%.
As to `COc1ccc(NC(=O)c2ccccc2[Se][Se]c2ccccc2C(=O)Nc2ccc(OC)cc2OC)c(OC)c1` [Compound 31], the “inhibition [%] SARS-CoV-2 PLpro” value against SARS-CoV-2 PL^pro worked out at 76.6 ± 2.4%. At SARS-CoV-2 M^pro, the inhibition at 0.1 µM amounted to 50 ± 1% and the inhibition at 1 µM came to 100%. The same molecule had an IC50 in series [1] of 910 ± 100 nM. The molecule also showed a CC50 in the series on Vero E6 cells greater than 50000 nM. The EC50 in the series with SARS-CoV-2 [2] was found to be 7100 ± 840 nM. The concentration giving a half-maximal response (EC50) in the series on SARS-CoV-2 [3] came out at 2800 ± 310 nM.
Take `Cc1cc(NC(=O)c2ccccc2[Se][Se]c2ccccc2C(=O)Nc2ccc(Cl)c(C)c2)ccc1Cl` [Compound 33]: the “inhibition [%] SARS-CoV-2 PLpro” value against SARS-CoV-2 PL^pro turned out to be 72.1 ± 3.2%. Moreover, at SARS-CoV-2 M^pro, the inhibition at 0.1 µM was found to be 48.7 ± 5.4% and the inhibition at 1 µM came out at 92 ± 0.3%. Further, the IC50 in series [1] came to 1060 ± 50 nM. Also, the CC50 with Vero E6 cells is greater than 50000 nM. The EC50 with SARS-CoV-2 [2] was 20000 ± 1400 nM. In addition, in the series on SARS-CoV-2 [3], the EC50 was 1700 ± 80 nM.
As to `O=c1c2ccccc2[se]n1-c1ccc([N+](=O)[O-])cc1` [Compound 10], the inhibition at 1 µM on SARS-CoV-2 PL^pro amounted to 56.2 ± 4.2%. At SARS-CoV-2 M^pro, the inhibition at 0.1 µM stood at 82.9 ± 1.7%. The “SARS-CoV-2 nsp14 Hill coefficient p” value in series [1] stood at 1.73 ± 0.35.
Consider `Cc1ccc(Cl)cc1-n1[se]c2ccccc2c1=O` [Compound 20], for which the inhibition at 1 µM on SARS-CoV-2 PL^pro came to 62.6 ± 1.7%. In addition, at SARS-CoV-2 M^pro, the inhibition at 0.1 µM was 69 ± 3.5%.
For `O=C(Nc1ccccc1C(F)(F)F)c1ccccc1[Se][Se]c1ccccc1C(=O)Nc1ccccc1C(F)(F)F` [Compound 26], the “inhibition [%] SARS-CoV-2 PLpro” value on SARS-CoV-2 PL^pro is recorded as 61.3 ± 2.2%. At SARS-CoV-2 M^pro, the inhibition at 0.1 µM was determined as 34.5 ± 4.4% and the inhibition at 1 µM was found to be 78.1 ± 2.4%. This molecule yielded an IC50 in series [1] of 1820 ± 320 nM. The molecule further yielded a CC50 in the series on Vero E6 cells greater than 50000 nM. Further, the EC50 with SARS-CoV-2 [2] amounted to 37000 ± 2400 nM.
In the case of `O=C(Nc1ccccc1F)c1ccccc1[Se][Se]c1ccccc1C(=O)Nc1ccccc1F` [Compound 25], the “inhibition [%] SARS-CoV-2 PLpro” value on SARS-CoV-2 PL^pro turned out to be 82.1 ± 2.7%. Further, on SARS-CoV-2 M^pro, the inhibition at 0.1 µM stood at 33 ± 5.5% and the inhibition at 1 µM is 100%. The same molecule had an IC50 in series [1] of 120 ± 10 nM. The CC50 in the series on Vero E6 cells is roughly 60000 nM. Further, the EC50 in the series with SARS-CoV-2 [2] came to 3100 ± 360 nM. Further, the EC50 with SARS-CoV-2 [3] was found to be 1900 ± 150 nM.
